Measured values: ChEMBL document CHEMBL5579818, “Identification of 3-(9H-carbazol-9-yl)-2-(1,3-dioxoisoindolin-2-yl)propanoic acids as promising DNMT1 inhibitors” (Eur J Med Chem, 2024)

Key:
[1] = target: T1, DNA (cytosine-5)-methyltransferase 1 (Homo sapiens, UniProt P26358); test: Binding affinity to human DNMT1 expressed in Escherichia coli by SPR analysis
A2780 = test: Antiproliferative activity against human A2780 cells incubated for 48 hrs by MTT assay; format: functional, cell-based; settings: A2780, 48 h
[2] = target: T1, DNA (cytosine-5)-methyltransferase 1; test: Inhibition of DNMT1 (unknown origin) at 500 uM relative to control
HeLa = test: Antiproliferative activity against human HeLa cells incubated for 48 hrs by MTT assay; format: functional, cell-based
[3] = Inhibition of recombinant human DNA methyltransferase using DNA as substrate incubated for 2 hrs by agarose gel assay
[4] = target: T1, DNA (cytosine-5)-methyltransferase 1; test: Binding affinity to human DNMT1 expressed in Escherichia coli assessed as equilibrium dissociation constant by SPR analysis
SiHa = test: Antiproliferative activity against human SiHa cells incubated for 48 hrs by MTT assay; format: functional, cell-based
[5] = target: T1, DNA (cytosine-5)-methyltransferase 1; test: Binding affinity to human DNMT1 expressed in Escherichia coli assessed as response unit at 10 uM by SPR analysis
K562 = test: Antiproliferative activity against human K562 cells incubated for 48 hrs by MTT assay; format: functional, cell-based; settings: K562, 48 h
[6] = target: T1, DNA (cytosine-5)-methyltransferase 1; test: Inhibition of DNMT1 (unknown origin) at 250 uM relative to control

T1 sequence (P26358 whole entry): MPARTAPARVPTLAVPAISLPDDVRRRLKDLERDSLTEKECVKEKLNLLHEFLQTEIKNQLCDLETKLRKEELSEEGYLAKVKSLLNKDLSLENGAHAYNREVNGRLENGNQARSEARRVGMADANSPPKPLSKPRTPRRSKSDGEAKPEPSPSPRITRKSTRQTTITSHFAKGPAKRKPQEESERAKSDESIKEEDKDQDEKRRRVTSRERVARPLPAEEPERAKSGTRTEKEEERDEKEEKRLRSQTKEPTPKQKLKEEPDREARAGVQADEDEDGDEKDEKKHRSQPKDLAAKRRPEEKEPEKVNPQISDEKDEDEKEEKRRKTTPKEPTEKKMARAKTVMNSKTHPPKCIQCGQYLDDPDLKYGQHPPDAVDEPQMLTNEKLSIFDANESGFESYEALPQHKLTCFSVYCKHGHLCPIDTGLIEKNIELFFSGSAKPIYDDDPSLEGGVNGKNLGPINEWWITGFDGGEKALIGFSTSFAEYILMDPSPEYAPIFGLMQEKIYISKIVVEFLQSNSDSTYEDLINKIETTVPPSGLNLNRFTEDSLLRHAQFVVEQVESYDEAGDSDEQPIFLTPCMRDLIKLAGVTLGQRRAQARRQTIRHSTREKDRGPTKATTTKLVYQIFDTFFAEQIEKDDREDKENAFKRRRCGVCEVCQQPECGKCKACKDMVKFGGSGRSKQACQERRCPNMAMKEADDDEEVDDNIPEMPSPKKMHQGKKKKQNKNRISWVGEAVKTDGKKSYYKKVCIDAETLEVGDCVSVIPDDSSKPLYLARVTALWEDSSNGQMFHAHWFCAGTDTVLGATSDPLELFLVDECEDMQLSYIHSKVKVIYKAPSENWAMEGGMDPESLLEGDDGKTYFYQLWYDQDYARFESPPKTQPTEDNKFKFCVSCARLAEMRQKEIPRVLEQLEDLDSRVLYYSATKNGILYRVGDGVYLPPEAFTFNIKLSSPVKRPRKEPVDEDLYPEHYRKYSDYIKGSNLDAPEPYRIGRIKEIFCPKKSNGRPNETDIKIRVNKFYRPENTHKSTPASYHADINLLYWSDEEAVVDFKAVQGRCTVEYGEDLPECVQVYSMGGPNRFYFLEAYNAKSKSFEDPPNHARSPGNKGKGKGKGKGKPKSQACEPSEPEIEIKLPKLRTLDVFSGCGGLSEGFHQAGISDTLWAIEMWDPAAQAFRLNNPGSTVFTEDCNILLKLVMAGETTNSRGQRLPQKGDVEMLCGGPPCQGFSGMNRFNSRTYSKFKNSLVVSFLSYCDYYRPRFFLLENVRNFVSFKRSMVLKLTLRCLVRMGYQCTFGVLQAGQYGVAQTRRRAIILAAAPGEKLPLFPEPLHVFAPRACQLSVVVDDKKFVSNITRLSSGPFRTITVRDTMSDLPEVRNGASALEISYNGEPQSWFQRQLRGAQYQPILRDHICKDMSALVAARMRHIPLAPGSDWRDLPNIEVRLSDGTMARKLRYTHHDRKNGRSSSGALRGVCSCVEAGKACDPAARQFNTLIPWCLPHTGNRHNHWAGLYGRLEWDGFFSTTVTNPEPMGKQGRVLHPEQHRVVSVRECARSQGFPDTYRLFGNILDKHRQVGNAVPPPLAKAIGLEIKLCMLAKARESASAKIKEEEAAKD

O=C(O)[C@H](Cc1c[nH]c2ccccc12)N1C(=O)c2ccccc2C1=O
Kd [1]: 94.6 µM
IC50 (A2780): > 200 µM
inhibition [2]: < 5%
IC50 (HeLa): > 200 µM
IC50 [3]: 115 nM
Kd [4]: 94.6 µM
IC50 (SiHa): > 200 µM
Activity [5]: 2.2 RU
IC50 (K562): > 200 µM
inhibition [6]: < 5%
